From ChEMBL document CHEMBL4725370, “Discovery of Proteolysis-Targeting Chimera Molecules that Selectively Degrade the IRAK3 Pseudokinase” (J Med Chem, 2020)

Legend:
[1] = target: CDK8/Cyclin C (Homo sapiens) (UniProt P49336+P24863); assay: Inhibition of CDK8/cyclin C (unknown origin) at 0.1 uM relative to control; assay type: protein-complex assay
THP-1 = assay: Selectivity ratio of Kd(app) for displacement of polymer supported probe 25 binding to IRAK1 in human THP-1 cell lysates to Kd(app) for displacement of polymer supported probe 25 binding to IRAK3 in human THP-1 cell lysates

inhibition [1]: 69%
Structure (SMILES): CC(C)c1ccn2ncnc(N[C@H]3CC[C@@H](N4CCN(C(=O)CCC(=O)N5CCC(CCN6CCN(c7ccc8c(c7)C(=O)N(C7CCC(=O)NC7=O)C8=O)CC6)CC5)CC4)CC3)c12 (some centres not stated)
Selectivity ratio (THP-1): 82
